In ChEMBL document CHEMBL1125543, “Urea and 2-imidazolidone derivatives of the muscarinic agents oxotremorine and N-methyl-N-(1-methyl-4-pyrrolidino-2-butynyl)acetamide” (J Med Chem, 1992):

Legend:
[1] = molecular target: T1, Muscarinic acetylcholine receptor M3 (Cavia porcellus, UniProt Q8VH26); assay: Dissociation constant for complex with muscarinic acetylcholine receptor M3 of guinea pig ileum; type: tissue-based
[2] = molecular target: T1, Muscarinic acetylcholine receptor M3; assay: Muscarinic acetylcholine receptor M3 agonistic/antagonistic activity in guinea pig ileum; type: functional, tissue-based
[3] = molecular target: Muscarinic acetylcholine receptor M3 (Cavia porcellus) (UniProt Q8VH26); assay: Maximum contractile response relative to carbachol (E max) in guinea pig ileum as muscarinic acetylcholine receptor M3 agonistic/antagonistic activity; type: functional, tissue-based
[4] = molecular target: Muscarinic acetylcholine receptor M3 (Cavia porcellus) (UniProt Q8VH26); assay: Relative efficacies determined with oxotremorine as the reference in guinea pig ileum, as a measure of muscarinic acetylcholine receptor M3 agonistic activity; type: functional, tissue-based
[5] = molecular target: Muscarinic acetylcholine receptor; assay: Displacement of [3H]3-quinuclidinyl benzilate ([3H]-QNB) from muscarinic acetylcholine receptor of rat cerebral cortex; type: tissue-based

T1 sequence (Q8VH26 whole entry): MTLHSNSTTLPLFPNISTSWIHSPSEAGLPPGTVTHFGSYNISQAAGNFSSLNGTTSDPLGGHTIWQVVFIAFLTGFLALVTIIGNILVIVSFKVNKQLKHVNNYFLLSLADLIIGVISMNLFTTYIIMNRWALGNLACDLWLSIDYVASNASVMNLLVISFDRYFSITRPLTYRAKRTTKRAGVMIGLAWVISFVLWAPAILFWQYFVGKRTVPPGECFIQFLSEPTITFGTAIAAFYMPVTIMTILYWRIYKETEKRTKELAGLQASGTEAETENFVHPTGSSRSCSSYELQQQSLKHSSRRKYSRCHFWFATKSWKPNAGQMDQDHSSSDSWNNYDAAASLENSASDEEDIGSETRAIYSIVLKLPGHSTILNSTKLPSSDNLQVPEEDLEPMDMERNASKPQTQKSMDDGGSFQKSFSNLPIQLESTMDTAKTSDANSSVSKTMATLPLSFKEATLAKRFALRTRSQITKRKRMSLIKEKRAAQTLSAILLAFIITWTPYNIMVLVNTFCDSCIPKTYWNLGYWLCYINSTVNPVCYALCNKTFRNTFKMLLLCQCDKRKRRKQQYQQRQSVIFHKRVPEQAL
Sequence of Muscarinic acetylcholine receptor M3 (Cavia porcellus) (Q8VH26 1-587): as the sequence (Q8VH26 whole entry) above

## CNC(=O)N(C)C(C)C#CCN1CCCC1 (centres undefined)
[1]
  Kd: 7500 nM
[2]
  EC50: 2110 nM
[3]
  Emax: 1
[4]
  Efficacy: 0.18
[5]
  Ki: 4200 nM

## O=C1NCCN1CC#CCN1CCCC1
[1]
  Kd: 30300 nM
[2]
  EC50: 2670 nM
[3]
  Emax: 1
[4]
  Efficacy: 0.49
[5]
  Ki: 6500 nM

## CC(=O)N(C)C(C)C#CCN1CCCC1 (centres undefined)
[1]
  Kd: 240 nM
[2]
  EC50: 190 nM
[3]
  Emax: 0.83
[4]
  Efficacy: 0.013

## C[N+](C)(C)CCOC(N)=O
[3]
  Emax: 1
[4]
  Efficacy: 5.71

## CC(C#CCN1CCCC1)N1CCCC1=O (centres undefined)
[1]
  Kd: 91 nM
[3]
  Emax: 0
[4]
  Efficacy: 0
[5]
  Ki: 59 nM

## CC1CCN(CC#CCN2CCCC2)C1=O (centres undefined)
[1]
  Kd: 11500 nM
[2]
  EC50: 500 nM

## CN1CCN(CC#CCN2CCCC2)C1=O
[1]
  Kd: 2900 nM
[2]
  EC50: 100 nM
[3]
  Emax: 1
[4]
  Efficacy: 0.21
[5]
  Ki: 1600 nM

## CNC(=O)N(C)CC#CCN1CCCC1
[1]
  Kd: 26400 nM
[2]
  EC50: 2160 nM
[3]
  Emax: 1
[4]
  Efficacy: 0.53
[5]
  Ki: 15800 nM

## O=C1CNC(=O)N1CC#CCN1CCCC1
[1]
  Kd: 100000 nM
[2]
  EC50: 46400 nM
[3]
  Emax: 0.37
[4]
  Efficacy: 0.12
[5]
  Ki: 17200 nM

## CC(C#CCN1CCCC1)N1CCNC1=O (centres undefined)
[1]
  Kd: 480 nM
[3]
  Emax: 0
[4]
  Efficacy: 0
[5]
  Ki: 640 nM

## CC(C#CCN1CCCC1)N(C)C(N)=O (centres undefined)
[1]
  Kd: 710 nM
[3]
  Emax: 0
[4]
  Efficacy: 0
[5]
  Ki: 420 nM

## CC(=O)N1CCN(CC#CCN2CCCC2)C1=O
[2]
  EC50: > 300000 nM
[3]
  Emax: 0
[4]
  Efficacy: 0
[5]
  Ki: 27400 nM

## CN(CC#CCN1CCCC1)C(N)=O
[1]
  Kd: 49000 nM
[2]
  EC50: 44900 nM
[3]
  Emax: 0.57
[4]
  Efficacy: 0.08
[5]
  Ki: 10700 nM

## O=CN1CCN(CC#CCN2CCCC2)C1=O
[1]
  Kd: 20900 nM
[2]
  EC50: 8600 nM
[3]
  Emax: 1
[4]
  Efficacy: 0.14
[5]
  Ki: 26400 nM

## O=C1CCCN1CC#CCN1CCCC1 [OXOTREMORINE]
[1]
  Kd: 1200 nM
[2]
  EC50: 50 nM
[3]
  Emax: 1
[4]
  Efficacy: 1
[5]
  Ki: 230 nM
